Literature values, collected in patent US20260031189A1, “METHOD AND SYSTEMS FOR PREDICTION OF HLA CLASS II-SPECIFIC EPITOPES AND CHARACTERIZATION OF CD4+ T CELLS” (BioNTech US Inc., priority 2022, published 2026).

Settings: with NYESO-1 peptide vaccine and Montanide; ovarian carcinoma; cited from earlier work

poly-ICLC
patients with induction of CD4+ and CD8+ T cell and antibody responses to the peptide: > 90%
